Test results: ChEMBL document CHEMBL1154172, “Synthesis and anti-inflammatory evaluation of novel angularly or linearly fused coumarins” (Eur J Med Chem, 2009)
Calls of active or inactive are those of the source. No cut-off for these calls is given here.

Legend:
[1] = Inhibition of soybean lipoxygenase assessed as conversion of sodium linoleate to 13-hydroperoxylinoleic acid; parameters: species or system Glycine max
[2] = Antioxidant activity assessed as superoxide radical scavenging activity at 0.1 mM after 2 mins by nitroblue tetrazolium method; type: functional
[3] = test system: Radical scavenging activity; test: Antioxidant activity assessed as DPPH free radical scavenging activity at 0.1 mM after 20 mins; type: functional
[4] = test system: Radical scavenging activity; test: Antioxidant activity assessed as DPPH free radical scavenging activity at 0.05 mM after 60 mins; type: functional
[5] = test system: Radical scavenging activity; test: Antioxidant activity assessed as DPPH free radical scavenging activity at 0.05 mM after 20 mins; type: functional
[6] = Antioxidant activity against Fe3+/ascorbic acid system generated hydroxyl radicals assessed as inhibition of formaldehyde production at 0.1 mM; type: functional; parameters: scale not given: the % may be the effect or the level left
Rattus norvegicus [7] = test: Antiinflammatory activity in Fisher 344 rat assessed as inhibition of carrageenan-induced paw edema at 0.01 mmol/kg, ip after 3.5 hrs; type: functional; details: Fisher 344, ip
Glycine max = test: Inhibition of soybean lipoxygenase assessed as conversion of sodium linoleate to 13-hydroperoxylinoleic acid at 0.1 mM
[8] = test system: Radical scavenging activity; test: Antioxidant activity assessed as DPPH free radical scavenging activity at 0.1 mM after 60 mins; type: functional
Rattus norvegicus [9] = test: Toxicity in Fisher 344 rat assessed as gastrointestinal ulcer at 0.01 mmol/kg, ip administered daily once for 4 days measured after 24 hrs final post dose; type: organism-based; details: in vivo
Rattus norvegicus [10] = test: Toxicity in Fisher 344 rat assessed as melena defecation at 0.01 mmol/kg, ip administered daily once for 4 days measured after 24 hrs final post dose; type: organism-based; details: in vivo
Rattus norvegicus [11] = test: Toxicity in Fisher 344 rat assessed as body weight change per 100 g of animal at 0.01 mmol/kg, ip administered daily once for 4 days measured after 24 hrs final post dose; type: organism-based; details: in vivo
[12] = Toxicity in Fisher 344 rat assessed as mortality at 0.01 mmol/kg, ip administered daily once for 4 days measured after 24 hrs final post dose; type: organism-based; details: in vivo, read-out: Activity

Row | IC50 [1] [µM] | inhibition (Glycine max) [%] | Structure (SMILES) | Activity [2] | Activity [3] | Activity [4] [%] | Activity [5] [%] | Activity [6] | inhibition in vivo at 10 µmol/kg (Rattus norvegicus [7]) [%] | Activity [8] | Activity (Rattus norvegicus [9]) [%] | Activity (Rattus norvegicus [10]) | Activity (Rattus norvegicus [11]) [g] | mortality at 24 h [12] [%]
1 |  | 0 | COC(=O)c1cc(=O)oc2cc3c(cc12)OCO3 |  | 9% | 18 | 12 | 78% | 45.5 | 21% |  |  |  | 
2 |  | 78 | COC(=O)c1cc(=O)oc2cc3c(cc12)CCCC3 | 100% | 12% | 21 | 12 | 74% | 43.4 | 25% |  |  |  | 
3 |  | 10 | COC(=O)c1cc(=O)oc2cc3c(cc12)CCC3 |  | 14% | 22 | 19 | 64% |  | 27% |  |  |  | 
4 | 100 |  | COC(=O)c1cc(=O)oc2c3c(ccc12)CCCC3 | inactive | inactive | 31 | 27 | inactive | 62 | inactive |  |  |  | 
5 |  | 31 | COC(=O)c1cc(=O)oc2ccc3c(c12)CCCC3 | inactive | 18% | 17 | 14 | 53% | 34 | 20% |  |  |  | 

Second part, the compound before the results:

Row | Structure (SMILES) | IC50 [1] [µM] | inhibition (Glycine max) [%] | Activity [2] | Activity [3] | Activity [4] [%] | Activity [5] [%] | Activity [6] | inhibition in vivo at 10 µmol/kg (Rattus norvegicus [7]) [%] | Activity [8] | Activity (Rattus norvegicus [9]) [%] | Activity (Rattus norvegicus [10]) | Activity (Rattus norvegicus [11]) [g] | mortality at 24 h [12] [%]
6 | O=C(O)/C=C/c1ccc(O)c(O)c1 [CAFFEIC ACID] | 600 |  | 46% |  |  |  |  |  |  |  |  |  | 
7 | O=c1ccc2ccc3c(c2o1)CCCC3 |  | 4 | 16% | inactive | 15 | 25 | inactive | 54 | inactive |  |  |  | 
8 | CC(Cc1ccc(O)c(O)c1)C(C)Cc1ccc(O)c(O)c1 (centres undefined) |  |  |  | 65% | 81 | 63 |  |  | 83% |  |  |  | 
9 | Cc1c(C)c2c(c(C)c1O)CCC(C)(C(=O)O)O2 (centres undefined) |  |  |  |  |  |  | 88% |  |  |  |  |  | 
10 | COc1ccc2c(c1)c(CC(=O)O)c(C)n2C(=O)c1ccc(Cl)cc1 [INDOMETHACIN] |  |  |  |  |  |  |  | 47 |  | 78 | Non-toxic | -9 | 50
11 | COC(=O)c1cc(=O)oc2c3c(ccc12)OC(C)(C)C3 |  | 4 | inactive | inactive | 12 | 11 | 72% | 65 | inactive | 0 | Toxic | 2.5 | 0
